Measurements as given in patent publication US8927565B2, “Compositions for veterinary and medical applications” (priority 2003, dated 2015).

Key:
chickens = experiment: Pilot chicken experiment (feed additives, growth and red combs)
C. albicans ATCC 14053 = experiment: Antimicrobial activity, Minimum Inhibitory Concentration; assay type: cell-based, Candida albicans; conditions: for Minimum Inhibitory Concentration: C. albicans ATCC 14053
Staph. Aureus ATCC 29213 = experiment: as above; assay type: cell-based, Staphylococcus aureus
IL-8 = experiment: Inhibition of IL-8 production
[1] = tested on: hFUT1 mouse model of colitis; experiment: Treatment of IBD on mouse model; assay type: in vivo; conditions: Group 2: berberine chloride 13.5 mg/kg/day (o.s.)
From the text: hFUT1 mouse model of colitis was used. It provides insights into the pathogenesis of Inflammatory Bowel Disease (IBD). […] Immune dysfunction contributing to IBD in humans includes abnormal T cell reactivity and a loss of tolerance to gut bacteria. The compositions of Formula (1) and Formula (2) were given orally to mice to see the effectiveness on the altering the gut flora and lessening the severity of the colitis. The positive results indicated the compositions of Formula and Formula (2) may have a therapeutic role in human IBD.
A total five groups with ten mice per group were used as follows. • 1) Control (without treatment). • 2) Treated with compound of the Formula (1) (berberine chloride), 13.5 mg/kg/day (o.s.). • 3) Treated with compound of the Formula (2) (40% oxidized cellulose), 114 mg/kg/day (o.s.). • 4) Treated with composition of the Formula (1) (berberine chloride) (6.7 mg/kg/day) and the Formula (2) (40% oxidized cellulose) (57 mg/kg/day) (o.s.). • 5) Treated with composition of the Formula (1) (berberine chloride) (13.5 mg/kg/day) and the Formula (2) (114 mg/kg/day) (o.s.).

E. coli HS = experiment: Antimicrobial activity, Minimum Inhibitory Concentration; assay type: cell-based, Escherichia Coli
[2] = tested on: Cl. perfringens ATCC 1124; assay type: cell-based; conditions: Clostridium perfringens
V. cholerae 6239 = experiment: Antimicrobial activity, Minimum Inhibitory Concentration; assay type: cell-based, Vibrio cholerae; conditions: for Minimum Inhibitory Concentration: V. cholerae 6239
Strep. Group B MCR1 27 = experiment: as above; assay type: cell-based, Streptococcus Group B; conditions: for Minimum Inhibitory Concentration: Strep. Group B MCR1 27
[3] = across the intestinal tissue; reference [13]; cited from earlier work
Escherichia Coli = experiment: Loss of filaments and of attachment to intestinal wall below the MIC; assay type: cell-based; conditions: berberine at 5 µg/ml, much lower than MIC
From the text: (§1) This specific property of berberine offers an important aspect as a GI tract cleanser, since it can selectively remove pathogenic bacteria from the gut without affecting the inhabitations of the probiotic bacteria in GI tract, and without exerting excessive drug pressure on the bacteria, which may lead to drug resistance.

interleukine-12 (IL-12) = experiment: Induction of interleukine-12
Lactobacilli = experiment: Effect on probiotic bacteria below the MIC; assay type: cell-based; conditions: berberine at 5 µg/ml
From the text: as §1

L. plantarum = experiment: Antimicrobial activity, Minimum Inhibitory Concentration; assay type: cell-based, Lactobacillus plantarum; conditions: for Minimum Inhibitory Concentration: L. plantarum
piglets = experiment: GILAX as feed additive for pig health after weaning; assay type: in vivo; conditions: in-feed amoxicillin at 50 mg/kg/day for 21 days (positive control)

COc1ccc2cc3[n+](cc2c1OC)CCc1cc2c(cc1-3)OCO2.[Cl-] [berberine chloride]
Growth rate compared to that of the control on day 36 (chickens; Group A: 50 ppm berberine chloride in feed): 106.36% (p = 0.05)
Red Combs (Number of red comb/total number of chickens) (chickens; Group A: 50 ppm berberine chloride in feed, Day 14 (start of additive)): 0/5
Red Combs (Number of red comb/total number of chickens) (chickens; Group A: 50 ppm berberine chloride in feed, Day 17): 1/5
Red Combs (Number of red comb/total number of chickens) (chickens; Group A: 50 ppm berberine chloride in feed, Day 21): 1/5
Red Combs (Number of red comb/total number of chickens) (chickens; Group A: 50 ppm berberine chloride in feed, Day 24): 3/5
Red Combs (Number of red comb/total number of chickens) (chickens; Group A: 50 ppm berberine chloride in feed, Day 26): 3/5
Red Combs (Number of red comb/total number of chickens) (chickens; Group A: 50 ppm berberine chloride in feed, Day 32): 4/5
Red Combs (Number of red comb/total number of chickens) (chickens; Group A: 50 ppm berberine chloride in feed, Day 36): 4/5
Growth rate compared to that of the control on day 36 (chickens; Group B: 10 ppm berberine chloride in feed): 101.79%
Red Combs (Number of red comb/total number of chickens) (chickens; Group B: 10 ppm berberine chloride in feed, Day 14 (start of additive)): 0/5
Red Combs (Number of red comb/total number of chickens) (chickens; Group B: 10 ppm berberine chloride in feed, Day 17): 0/5
Red Combs (Number of red comb/total number of chickens) (chickens; Group B: 10 ppm berberine chloride in feed, Day 21): 2/5
Red Combs (Number of red comb/total number of chickens) (chickens; Group B: 10 ppm berberine chloride in feed, Day 24): 2/5
Red Combs (Number of red comb/total number of chickens) (chickens; Group B: 10 ppm berberine chloride in feed, Day 26): 3/5
Red Combs (Number of red comb/total number of chickens) (chickens; Group B: 10 ppm berberine chloride in feed, Day 32): 4/5
Red Combs (Number of red comb/total number of chickens) (chickens; Group B: 10 ppm berberine chloride in feed, Day 36): 5/5
residue found in the meat of chickens (chickens; after feeding as feed additive): no residue
Minimum Inhibitory Concentration (C. albicans ATCC 14053): 62.5 µg/mL
inhibition of pathogenic bacteria (in words) (C. albicans ATCC 14053; Candida albicans): selectively inhibits
inhibition of pathogenic bacteria (in words) (Staph. Aureus ATCC 29213; Staphylococcus aureus): selectively inhibits
inhibition of the production of IL-8 (IL-8): inhibit the production of IL-8
Survival rate after 56 days treatment [1]: 5/10
Minimum Inhibitory Concentration (E. coli HS): >500 µg/mL
inhibition of pathogenic bacteria (in words) [2]: selectively inhibits
Minimum Inhibitory Concentration (V. cholerae 6239): 125 µg/mL
inhibition of pathogenic bacteria (in words) (V. cholerae 6239; Vibrio cholerae): selectively inhibits
Minimum Inhibitory Concentration (Strep. Group B MCR1 27): 62.5 µg/mL
inhibition of pathogenic bacteria (in words) (Strep. Group B MCR1 27; Streptococcus Group B): selectively inhibits
apparent permeability coefficient (Papp) [3]: ~10^−7 cm/s
effect on filaments and attachment on the wall of intestine (Escherichia Coli): lost their filaments and were unable to attach on the wall of intestine
induction of interleukine-12 (IL-12) (interleukine-12 (IL-12)): could induce
effect on probiotic bacteria (Lactobacilli): did not affect
Minimum Inhibitory Concentration (L. plantarum): 500 µg/mL
inhibition of beneficial bacteria (probiotics) (in words) (L. plantarum; Lactobacillus plantarum, at <500 µg/ml): does not inhibit

CC[C@H]1OC(=O)[C@H](C)[C@@H](O[C@H]2C[C@@](C)(OC)[C@@H](O)[C@H](C)O2)[C@H](C)[C@@H](O[C@@H]2O[C@H](C)C[C@H](N(C)C)[C@H]2O)[C@](C)(O)C[C@@H](C)C(=O)[C@H](C)[C@@H](O)[C@]1(C)O [Erythromycin, reference compound]
Minimum Inhibitory Concentration (C. albicans ATCC 14053): >10 µg/mL
Minimum Inhibitory Concentration (Staph. Aureus ATCC 29213; Staph. Aureus ATCC 29213): <0.625 µg/mL
Minimum Inhibitory Concentration (E. coli HS): >10 µg/mL
Minimum Inhibitory Concentration (V. cholerae 6239): >10 µg/mL
Minimum Inhibitory Concentration (Strep. Group B MCR1 27): <0.625 µg/mL
Minimum Inhibitory Concentration (L. plantarum): <0.625 µg/mL

CC1(C)S[C@@H]2[C@H](NC(=O)[C@H](N)c3ccc(O)cc3)C(=O)N2[C@H]1C(=O)O [Amoxicillin, amoxicillin]
health of piglets after weaning (piglets): all healthy
need of injectable amoxicillin for sick piglets (piglets): no injectable amoxicillin was needed
